“And” between values parts separate entries of the source, which are not always exact repeats. Equal values may be shown once. Toxic doses and inconclusive results are not listed.
Test system: L1210 leukemia ip in BDF1 mice, survival T/C
Experiment: NCI In Vivo Anticancer Drug Screen. Data for tumor model L1210 Leukemia (intraperitoneal) in B6D2F1 (BDF1) mice
Conditions: endpoint: mean survival time, higher = longer survival
In short: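 Antitumor effect is assessed in tumor-bearing animals. Survival in the compound arm is compared with a vehicle-dosed control arm and expressed as their quotient.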

[1] = dose: 100.0 mg/kg/injection, schedule: Q01DX001 (ip), vehicle: Klucel (hydroxypropylcellulose) (HPC)
[2] = dose: 100.0 mg/kg/injection, schedule: Q04DX003 (ip), vehicle: Klucel (hydroxypropylcellulose) (HPC)
[3] = dose: 200.0 mg/kg/injection, schedule: Q01DX001 (ip), vehicle: Klucel (hydroxypropylcellulose) (HPC)
[4] = dose: 200.0 mg/kg/injection, schedule: Q04DX003 (ip), vehicle: Klucel (hydroxypropylcellulose) (HPC)
[5] = dose: 400.0 mg/kg/injection, schedule: Q01DX001 (ip), vehicle: Klucel (hydroxypropylcellulose) (HPC)
[6] = dose: 400.0 mg/kg/injection, schedule: Q04DX003 (ip), vehicle: Klucel (hydroxypropylcellulose) (HPC)
[7] = dose: 100.0 mg/kg/injection, schedule: Q04DX003 (ip), vehicle: saline with Tween-80
[8] = dose: 200.0 mg/kg/injection, schedule: Q04DX003 (ip), vehicle: saline with Tween-80
[9] = dose: 400.0 mg/kg/injection, schedule: Q04DX003 (ip), vehicle: saline with Tween-80
[10] = dose: 50.0 mg/kg/injection, schedule: Q04DX003 (ip), vehicle: saline

CCOC(=O)c1[nH]c(C)c(C(=O)OC(C)(C)C)c1C
T/C [1]: 95 % of control | T/C [2]: 95 % of control | T/C [3]: 93 % of control | T/C [4]: 106 % of control | T/C [5]: 92 % of control | T/C [6]: 103 % of control

NCc1ccc(Cl)cc1Cl
T/C (dose: 100.0 mg/kg/injection, schedule: Q01DX009 (ip), vehicle: saline): 103 % of control | T/C (dose: 200.0 mg/kg/injection, schedule: Q01DX009 (ip), vehicle: saline): 108 % of control

NC(CCCCN=Cc1ccccc1O)C(=O)O (configuration not stated)
T/C (dose: 100.0 mg/kg/injection, schedule: Q01DX001 (ip), vehicle: saline): 95 % of control | T/C (dose: 200.0 mg/kg/injection, schedule: Q01DX001 (ip), vehicle: saline): 92 % of control | T/C (dose: 400.0 mg/kg/injection, schedule: Q01DX001 (ip), vehicle: saline): 91 % of control

O=C(Nc1cccc(C2=NCCN2)c1)c1ccc(N=Nc2ccc(C(=O)Nc3cccc(C4=NCCN4)c3)cc2)cc1
T/C (dose: 93.0 mg/kg/injection, schedule: Q01DX Z (ip), vehicle: water): 93 % of control | T/C (dose: 186.0 mg/kg/injection, schedule: Q01DX Z (ip), vehicle: water): 100 % of control

CC(=O)OCC1OC(Oc2ccc([N+](=O)[O-])cc2[N+](=O)[O-])C(OC(C)=O)C(OC(C)=O)C1OC(C)=O (configuration not stated)
T/C [7]: 100 % of control | T/C [8]: 91 % of control | T/C [9]: 91 % of control

CC1(C)CS(=O)(=O)CC1=O
T/C (dose: 3.0 mg/kg/injection, schedule: Q01DX009 (ip), vehicle: other): 103 % of control | T/C (dose: 6.0 mg/kg/injection, schedule: Q01DX009 (ip), vehicle: other): 102 % of control | T/C (dose: 12.0 mg/kg/injection, schedule: Q01DX009 (ip), vehicle: other): 94 % of control | T/C (dose: 12.0 mg/kg/injection, schedule: Q04DX003 (ip), vehicle: saline): 98 % of control | T/C (dose: 25.0 mg/kg/injection, schedule: Q01DX009 (ip), vehicle: other): 100 % of control | T/C (dose: 25.0 mg/kg/injection, schedule: Q04DX003 (ip), vehicle: saline): 101 % of control | T/C (dose: 50.0 mg/kg/injection, schedule: Q01DX009 (ip), vehicle: other): 96 % of control | T/C [10]: 106 % of control

COCC(=O)C(C(C)=O)C(c1ccncc1)C(C(C)=O)C(=O)COC (configuration not stated)
T/C (dose: 100.0 mg/kg/injection, schedule: Q01DX009 (ip), vehicle: saline with Tween-80): 98 % of control | T/C (dose: 200.0 mg/kg/injection, schedule: Q01DX009 (ip), vehicle: saline with Tween-80): 97 % of control | T/C (dose: 400.0 mg/kg/injection, schedule: Q01DX009 (ip), vehicle: saline with Tween-80): 93 % of control

CC(=O)NC1CON=C1OS(=O)(=O)c1ccc(C)cc1 (configuration not stated)
T/C (dose: 100.0 mg/kg/injection, schedule: Q01DX001 (ip), vehicle: saline with Tween-80): 89 % of control | T/C (dose: 200.0 mg/kg/injection, schedule: Q01DX001 (ip), vehicle: saline with Tween-80): 89 % of control | T/C (dose: 400.0 mg/kg/injection, schedule: Q01DX001 (ip), vehicle: saline with Tween-80): 100 % of control

c1ccc(C2=NNC(c3ccccc3)=C(c3ccccc3)C2)cc1
T/C [1]: 89 % of control | T/C [2]: 98 % of control | T/C [3]: 103 % of control | T/C [4]: 100 % of control | T/C [5]: 101 % of control | T/C [6]: 100 % of control

CNC(=O)c1ccccc1C(O)(c1ccccc1)c1ccccc1
T/C (dose: 100.0 mg/kg/injection, schedule: Q01DX009 (ip), vehicle: Klucel (hydroxypropylcellulose) (HPC)): 95 % of control | T/C [2]: 94 % of control | T/C (dose: 200.0 mg/kg/injection, schedule: Q01DX009 (ip), vehicle: Klucel (hydroxypropylcellulose) (HPC)): 98 % of control | T/C [4]: 97 % of control | T/C (dose: 400.0 mg/kg/injection, schedule: Q01DX009 (ip), vehicle: Klucel (hydroxypropylcellulose) (HPC)): 101 % of control | T/C [6]: 90 % of control

CC(C)CCC(C)O[Si](C)c1ccccc1 (configuration not stated)
T/C [7]: 97 % of control | T/C [8]: 99 % of control | T/C [9]: 101 % of control

OCCN1CCN(CCCN2c3ccccc3Sc3ccc(C(F)(F)F)cc32)CC1
T/C (dose: 0.09 mg/kg/injection, schedule: Q01DX009 (ip), vehicle: Klucel (hydroxypropylcellulose) (HPC)): 109 % of control | T/C (dose: 0.12 mg/kg/injection, schedule: Q01DX009 (ip), vehicle: acetone): 107 % of control | T/C (dose: 0.19 mg/kg/injection, schedule: Q01DX009 (ip), vehicle: Klucel (hydroxypropylcellulose) (HPC)): 97 % of control | T/C (dose: 0.25 mg/kg/injection, schedule: Q01DX009 (ip), vehicle: acetone): 106 % of control | T/C (dose: 0.39 mg/kg/injection, schedule: Q01DX009 (ip), vehicle: Klucel (hydroxypropylcellulose) (HPC)): 120 % of control | T/C (dose: 0.39 mg/kg/injection, schedule: Q01DX009 (ip), vehicle: saline): 97 % of control | T/C (dose: 0.39 mg/kg/injection, schedule: Q04DX003 (ip), vehicle: saline): 101 % of control | T/C (dose: 0.5 mg/kg/injection, schedule: Q01DX009 (ip), vehicle: acetone): 112 % of control | T/C (dose: 0.58 mg/kg/injection, schedule: Q01DX009 (ip), vehicle: saline): 111 % of control | T/C (dose: 0.78 mg/kg/injection, schedule: Q01DX009 (ip), vehicle: Klucel (hydroxypropylcellulose) (HPC)): 101 % of control | T/C (dose: 0.78 mg/kg/injection, schedule: Q01DX009 (ip), vehicle: saline): 108 % of control | T/C (dose: 0.78 mg/kg/injection, schedule: Q04DX003 (ip), vehicle: saline): 97 % of control and 108 % of control | T/C (dose: 1.0 mg/kg/injection, schedule: Q01DX009 (ip), vehicle: acetone): 120 % of control | T/C (dose: 1.17 mg/kg/injection, schedule: Q01DX009 (ip), vehicle: saline): 108 % of control | T/C (dose: 1.25 mg/kg/injection, schedule: Q01DX009 (ip), vehicle: saline): 98 % of control | T/C (dose: 1.56 mg/kg/injection, schedule: Q01DX009 (ip), vehicle: Klucel (hydroxypropylcellulose) (HPC)): 92 % of control | T/C (dose: 1.56 mg/kg/injection, schedule: Q01DX009 (ip), vehicle: saline): 87 % of control | T/C (dose: 1.56 mg/kg/injection, schedule: Q04DX003 (ip), vehicle: saline): 97 % of control and 108 % of control | T/C (dose: 2.34 mg/kg/injection, schedule: Q01DX009 (ip), vehicle: saline): 97 % of control | T/C (dose: 3.12 mg/kg/injection, schedule: Q04DX003 (ip), vehicle: saline): 102 % of control and 101 % of control | T/C (dose: 4.68 mg/kg/injection, schedule: Q04DX003 (ip), vehicle: Klucel (hydroxypropylcellulose) (HPC)): 92 % of control | T/C (dose: 5.0 mg/kg/injection, schedule: Q01DX009 (ip), vehicle: saline): 94 % of control and 88 % of control | T/C (dose: 6.25 mg/kg/injection, schedule: Q04DX003 (ip), vehicle: saline): 100 % of control and 114 % of control and 112 % of control | T/C (dose: 6.6 mg/kg/injection, schedule: Q04DX003 (ip), vehicle: saline): 106 % of control | T/C (dose: 9.37 mg/kg/injection, schedule: Q04DX003 (ip), vehicle: Klucel (hydroxypropylcellulose) (HPC)): 107 % of control | T/C (dose: 10.0 mg/kg/injection, schedule: Q04DX003 (ip), vehicle: saline): 117 % of control | T/C (dose: 12.5 mg/kg/injection, schedule: Q04DX003 (ip), vehicle: saline): 107 % of control and 116 % of control | T/C (dose: 15.0 mg/kg/injection, schedule: Q04DX003 (ip), vehicle: saline): 117 % of control | T/C [10]: 164 % of control

Cc1cc(=O)[nH]c2c(O)cc([N+](=O)[O-])cc12
T/C (dose: 50.0 mg/kg/injection, schedule: Q01DX001 (ip), vehicle: Klucel (hydroxypropylcellulose) (HPC)): 111 % of control | T/C [1]: 100 % of control | T/C [3]: 97 % of control
